Measurements published in paper PMC9851200, “Multiparameter phenotypic screening for endogenous TFEB and TFE3 translocation identifies novel chemical series modulating lysosome function” (Autophagy, 2022).

What was measured:
Type in all cases: binding
[1] = target: kinases (KINOMEscan panel) (Homo sapiens, UniProt P42684); conditions: ABL2; NEW KINOMEscan
[2] = target: kinases (KINOMEscan panel) (Homo sapiens, UniProt P09769); conditions: FGR; NEW KINOMEscan
[3] = target: kinases (KINOMEscan panel) (Homo sapiens, UniProt P21127); conditions: CDK11B; NEW KINOMEscan
kinases (KINOMEscan panel) (Homo sapiens, UniProt P21127), sequence (P21127 whole entry): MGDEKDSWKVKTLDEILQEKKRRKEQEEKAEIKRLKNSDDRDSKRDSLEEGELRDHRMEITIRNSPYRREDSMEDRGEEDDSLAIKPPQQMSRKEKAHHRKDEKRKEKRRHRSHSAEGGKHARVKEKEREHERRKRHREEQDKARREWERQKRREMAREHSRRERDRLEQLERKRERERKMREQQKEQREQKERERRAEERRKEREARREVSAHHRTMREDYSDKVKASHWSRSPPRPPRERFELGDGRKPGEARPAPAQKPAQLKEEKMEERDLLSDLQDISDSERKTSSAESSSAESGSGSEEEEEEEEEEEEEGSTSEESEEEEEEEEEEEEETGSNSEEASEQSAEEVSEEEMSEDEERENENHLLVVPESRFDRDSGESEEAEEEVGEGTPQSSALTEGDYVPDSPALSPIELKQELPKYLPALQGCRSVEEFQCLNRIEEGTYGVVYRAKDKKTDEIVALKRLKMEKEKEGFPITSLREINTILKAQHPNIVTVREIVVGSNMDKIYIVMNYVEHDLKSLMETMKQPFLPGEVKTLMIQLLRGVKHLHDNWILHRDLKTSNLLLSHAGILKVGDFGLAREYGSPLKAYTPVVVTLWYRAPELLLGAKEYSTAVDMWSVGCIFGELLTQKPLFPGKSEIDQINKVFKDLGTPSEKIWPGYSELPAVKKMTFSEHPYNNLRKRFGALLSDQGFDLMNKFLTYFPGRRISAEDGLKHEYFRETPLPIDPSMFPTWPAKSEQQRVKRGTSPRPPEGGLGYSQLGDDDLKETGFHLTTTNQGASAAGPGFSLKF

[4] = target: T1, kinases (KINOMEscan panel) (Homo sapiens, UniProt Q56UN5); conditions: NEW KINOMEscan
T1 sequence (Q56UN5 1-1328): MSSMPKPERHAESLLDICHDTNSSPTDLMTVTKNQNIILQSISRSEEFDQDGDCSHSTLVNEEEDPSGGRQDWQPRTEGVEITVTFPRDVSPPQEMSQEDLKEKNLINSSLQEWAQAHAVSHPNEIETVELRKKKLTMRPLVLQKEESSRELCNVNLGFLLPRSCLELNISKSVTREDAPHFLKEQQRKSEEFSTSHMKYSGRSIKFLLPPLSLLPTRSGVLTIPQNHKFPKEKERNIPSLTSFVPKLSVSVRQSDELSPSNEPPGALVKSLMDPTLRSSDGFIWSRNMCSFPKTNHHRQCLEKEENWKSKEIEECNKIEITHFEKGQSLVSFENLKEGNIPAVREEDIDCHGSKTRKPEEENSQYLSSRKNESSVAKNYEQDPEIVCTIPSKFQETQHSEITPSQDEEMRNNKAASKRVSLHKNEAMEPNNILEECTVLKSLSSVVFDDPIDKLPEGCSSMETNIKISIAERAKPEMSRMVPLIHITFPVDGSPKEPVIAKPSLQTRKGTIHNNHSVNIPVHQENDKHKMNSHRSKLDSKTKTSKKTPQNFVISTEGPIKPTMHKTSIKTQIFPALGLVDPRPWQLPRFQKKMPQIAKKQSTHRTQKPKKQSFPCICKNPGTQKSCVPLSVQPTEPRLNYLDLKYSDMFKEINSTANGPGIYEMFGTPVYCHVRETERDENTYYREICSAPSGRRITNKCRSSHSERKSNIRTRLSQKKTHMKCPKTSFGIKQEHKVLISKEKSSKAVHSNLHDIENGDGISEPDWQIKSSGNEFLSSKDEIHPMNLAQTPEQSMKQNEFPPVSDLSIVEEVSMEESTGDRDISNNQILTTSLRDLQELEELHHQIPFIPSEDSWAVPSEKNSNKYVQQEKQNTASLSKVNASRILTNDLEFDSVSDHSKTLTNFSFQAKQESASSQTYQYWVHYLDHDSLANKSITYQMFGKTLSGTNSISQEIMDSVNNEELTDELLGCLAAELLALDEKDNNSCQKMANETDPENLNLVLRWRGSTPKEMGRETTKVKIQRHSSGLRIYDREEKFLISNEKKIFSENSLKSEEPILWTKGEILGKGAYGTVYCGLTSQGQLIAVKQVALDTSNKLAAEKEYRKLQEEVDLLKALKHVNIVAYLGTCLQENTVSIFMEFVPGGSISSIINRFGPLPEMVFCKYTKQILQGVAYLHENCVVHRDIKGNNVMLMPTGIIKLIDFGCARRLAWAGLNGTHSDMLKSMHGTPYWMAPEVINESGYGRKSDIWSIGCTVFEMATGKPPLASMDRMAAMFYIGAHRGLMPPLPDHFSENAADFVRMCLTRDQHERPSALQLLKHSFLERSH

[5] = target: T2, kinases (KINOMEscan panel) (Homo sapiens, UniProt O75747); conditions: NEW KINOMEscan
T2 sequence (O75747 1-1486): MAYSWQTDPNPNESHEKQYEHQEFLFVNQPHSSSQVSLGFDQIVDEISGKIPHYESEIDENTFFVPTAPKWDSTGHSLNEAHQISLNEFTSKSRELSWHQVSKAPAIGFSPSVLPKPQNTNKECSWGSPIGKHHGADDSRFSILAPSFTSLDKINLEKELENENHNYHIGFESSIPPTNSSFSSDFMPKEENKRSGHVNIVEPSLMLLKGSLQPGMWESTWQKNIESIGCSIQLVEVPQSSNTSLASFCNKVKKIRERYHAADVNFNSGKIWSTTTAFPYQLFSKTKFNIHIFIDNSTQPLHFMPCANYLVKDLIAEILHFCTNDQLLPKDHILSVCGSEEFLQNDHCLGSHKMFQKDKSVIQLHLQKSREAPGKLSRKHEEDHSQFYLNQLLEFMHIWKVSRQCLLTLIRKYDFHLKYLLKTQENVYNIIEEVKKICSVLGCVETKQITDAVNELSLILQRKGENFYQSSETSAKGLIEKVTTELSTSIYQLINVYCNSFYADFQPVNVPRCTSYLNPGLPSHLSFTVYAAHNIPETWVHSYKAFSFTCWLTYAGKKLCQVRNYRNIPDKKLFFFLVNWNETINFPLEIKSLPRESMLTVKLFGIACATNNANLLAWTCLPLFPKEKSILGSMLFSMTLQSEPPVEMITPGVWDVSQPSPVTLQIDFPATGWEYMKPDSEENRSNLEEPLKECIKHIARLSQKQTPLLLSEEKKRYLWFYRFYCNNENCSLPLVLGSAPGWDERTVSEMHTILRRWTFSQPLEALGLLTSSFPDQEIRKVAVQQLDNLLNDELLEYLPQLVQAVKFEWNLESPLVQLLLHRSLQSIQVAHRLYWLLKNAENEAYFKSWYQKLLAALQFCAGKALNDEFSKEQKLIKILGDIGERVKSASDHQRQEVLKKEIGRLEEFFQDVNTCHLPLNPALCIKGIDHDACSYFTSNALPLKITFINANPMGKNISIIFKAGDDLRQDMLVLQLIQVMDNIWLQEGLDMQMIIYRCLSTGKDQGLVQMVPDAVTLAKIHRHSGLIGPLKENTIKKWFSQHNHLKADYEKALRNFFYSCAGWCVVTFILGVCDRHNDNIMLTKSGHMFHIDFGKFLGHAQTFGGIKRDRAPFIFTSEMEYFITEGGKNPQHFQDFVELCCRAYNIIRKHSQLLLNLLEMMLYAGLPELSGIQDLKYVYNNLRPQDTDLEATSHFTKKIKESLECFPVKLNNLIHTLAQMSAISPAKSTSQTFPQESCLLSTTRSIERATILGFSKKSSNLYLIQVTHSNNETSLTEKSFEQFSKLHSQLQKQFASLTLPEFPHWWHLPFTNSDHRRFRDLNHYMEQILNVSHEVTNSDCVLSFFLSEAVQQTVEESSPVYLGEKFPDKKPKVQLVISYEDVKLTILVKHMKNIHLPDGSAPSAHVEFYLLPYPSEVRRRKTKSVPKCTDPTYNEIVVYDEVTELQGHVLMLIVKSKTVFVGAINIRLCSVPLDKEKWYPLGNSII

[6] = target: kinases (KINOMEscan panel) (Homo sapiens, UniProt P0C1S8); conditions: WEE2; NEW KINOMEscan
kinases (KINOMEscan panel) (Homo sapiens, UniProt P0C1S8), sequence (P0C1S8 whole entry): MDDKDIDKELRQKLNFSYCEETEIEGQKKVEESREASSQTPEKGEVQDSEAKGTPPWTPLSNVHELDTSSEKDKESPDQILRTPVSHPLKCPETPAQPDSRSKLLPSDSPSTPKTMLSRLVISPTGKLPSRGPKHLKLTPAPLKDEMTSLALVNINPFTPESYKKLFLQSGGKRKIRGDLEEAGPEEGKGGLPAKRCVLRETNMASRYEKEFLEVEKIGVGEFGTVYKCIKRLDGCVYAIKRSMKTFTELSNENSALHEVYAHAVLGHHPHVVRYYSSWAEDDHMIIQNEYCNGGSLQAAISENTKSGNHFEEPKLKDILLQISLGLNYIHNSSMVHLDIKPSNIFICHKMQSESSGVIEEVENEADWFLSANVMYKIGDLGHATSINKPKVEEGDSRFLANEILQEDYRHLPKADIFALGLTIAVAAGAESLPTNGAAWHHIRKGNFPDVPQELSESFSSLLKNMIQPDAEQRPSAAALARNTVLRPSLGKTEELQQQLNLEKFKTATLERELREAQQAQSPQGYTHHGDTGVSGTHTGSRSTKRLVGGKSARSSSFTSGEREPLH

kinases (KINOMEscan panel) (Homo sapiens, UniProt P42684), sequence (P42684 whole entry): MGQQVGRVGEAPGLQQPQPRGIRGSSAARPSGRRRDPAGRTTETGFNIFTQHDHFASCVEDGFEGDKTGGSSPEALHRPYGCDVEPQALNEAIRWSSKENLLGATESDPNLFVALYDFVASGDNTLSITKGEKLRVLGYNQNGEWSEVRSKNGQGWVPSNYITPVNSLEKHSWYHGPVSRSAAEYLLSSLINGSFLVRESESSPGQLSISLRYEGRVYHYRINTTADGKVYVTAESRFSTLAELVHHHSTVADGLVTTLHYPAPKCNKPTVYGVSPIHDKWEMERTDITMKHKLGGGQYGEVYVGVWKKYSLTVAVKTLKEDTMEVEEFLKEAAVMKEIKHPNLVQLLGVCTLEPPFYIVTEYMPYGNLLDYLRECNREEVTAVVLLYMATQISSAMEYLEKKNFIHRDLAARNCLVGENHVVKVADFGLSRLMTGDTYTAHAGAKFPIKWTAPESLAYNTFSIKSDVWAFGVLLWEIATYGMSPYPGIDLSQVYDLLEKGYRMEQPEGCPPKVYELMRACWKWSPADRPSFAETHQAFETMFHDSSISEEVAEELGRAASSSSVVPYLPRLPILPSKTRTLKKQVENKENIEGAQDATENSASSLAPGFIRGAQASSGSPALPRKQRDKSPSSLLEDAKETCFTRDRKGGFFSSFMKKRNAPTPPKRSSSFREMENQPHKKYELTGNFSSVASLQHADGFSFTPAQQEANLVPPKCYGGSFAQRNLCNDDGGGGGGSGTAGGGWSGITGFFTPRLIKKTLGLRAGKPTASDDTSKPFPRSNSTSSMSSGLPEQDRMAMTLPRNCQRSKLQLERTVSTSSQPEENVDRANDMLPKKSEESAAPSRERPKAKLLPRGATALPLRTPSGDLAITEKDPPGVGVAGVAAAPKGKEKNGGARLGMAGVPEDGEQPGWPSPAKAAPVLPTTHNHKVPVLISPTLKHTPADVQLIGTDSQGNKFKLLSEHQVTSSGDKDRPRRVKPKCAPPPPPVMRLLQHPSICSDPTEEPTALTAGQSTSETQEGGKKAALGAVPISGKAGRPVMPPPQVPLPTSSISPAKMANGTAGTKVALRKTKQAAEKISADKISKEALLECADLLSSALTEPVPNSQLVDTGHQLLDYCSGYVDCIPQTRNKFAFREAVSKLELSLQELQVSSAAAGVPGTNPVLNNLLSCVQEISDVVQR
kinases (KINOMEscan panel) (Homo sapiens, UniProt P09769), sequence (P09769 whole entry): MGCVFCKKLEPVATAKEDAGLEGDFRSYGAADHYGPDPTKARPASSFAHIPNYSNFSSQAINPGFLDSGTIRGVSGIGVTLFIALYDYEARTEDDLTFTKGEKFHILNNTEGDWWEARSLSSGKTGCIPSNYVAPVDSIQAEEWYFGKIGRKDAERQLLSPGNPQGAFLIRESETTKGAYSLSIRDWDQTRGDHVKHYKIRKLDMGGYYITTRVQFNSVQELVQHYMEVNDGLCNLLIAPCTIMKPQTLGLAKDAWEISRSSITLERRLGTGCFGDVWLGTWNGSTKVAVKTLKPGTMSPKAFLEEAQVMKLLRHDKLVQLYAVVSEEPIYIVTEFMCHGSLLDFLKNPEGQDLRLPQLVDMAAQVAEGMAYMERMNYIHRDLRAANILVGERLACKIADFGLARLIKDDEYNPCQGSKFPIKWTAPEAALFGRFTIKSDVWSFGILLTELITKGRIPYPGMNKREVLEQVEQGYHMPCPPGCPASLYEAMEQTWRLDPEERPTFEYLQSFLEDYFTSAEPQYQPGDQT

Structure (SMILES)	KINOMEscan ABL2 [1]	KINOMEscan FGR [2]	KINOMEscan CDK11B [3]	KINOMEscan MAP3K19 [4]	KINOMEscan PIK3C2G [5]	KINOMEscan WEE2 [6]
Cc1cccc(-c2nc(Nc3ccc4nn(C)cc4c3)c3ccccc3n2)n1 [NK167]	0	0	10	0	0	0
Cc1cccc(-c2nc(N(C)c3ccc4ncsc4c3)c3ccccc3n2)n1 [NK-161]	8	0	1	0	0	5
